Assay results as given in ChEMBL document CHEMBL1201862, “PubChem BioAssay data set” (2004).
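Tested at 5 concentrations; 48 h exposure; 96-well plates; endpoints linearly interpolated, else capped at highest concentration. Abbreviation: GI50, concentration required for 50% inhibition of growth.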 Calls of active or inactive are those of the source. Cut-off read from the data, not from the text of the source: active = GI50 up to about 1.1 µM and inactive = higher.

Legend:
Assay in all cases: growth of human tumour cells (NCI), 48 h
HT-29 = tested on: HT-29
UO-31 = tested on: UO-31
COLO 205 = tested on: COLO 205
Malme-3M = tested on: Malme-3M
DU-145 = tested on: DU-145
K562 = tested on: K562
A549 = tested on: A549
HCT-116 = tested on: HCT-116
HL-60 = tested on: HL-60
MDA-MB-231 = tested on: MDA-MB-231
SF-295 = tested on: SF-295
SK-MEL-5 = tested on: SK-MEL-5
RPMI-8226 = tested on: RPMI-8226
U-251 = tested on: U-251
Hs-578T = tested on: Hs-578T
SN12C = tested on: SN12C
OVCAR-5 = tested on: OVCAR-5
PC-3 = tested on: PC-3
SNB-75 = tested on: SNB-75
A498 = tested on: A498
UACC-62 = tested on: UACC-62
OVCAR-8 = tested on: OVCAR-8
MOLT-4 = tested on: MOLT-4
HCT-15 = tested on: HCT-15
M14 = tested on: M14
LOX IMVI = tested on: LOX IMVI
RXF 393 = tested on: RXF 393
SW-620 = tested on: SW-620
SK-MEL-2 = tested on: SK-MEL-2
EKVX = tested on: EKVX
SF-268 = tested on: SF-268
CAKI-1 = tested on: CAKI-1
SK-MEL-28 = tested on: SK-MEL-28
NCI-H460 = tested on: NCI-H460
NCI-H23 = tested on: NCI-H23
KM12 = tested on: KM12
786-0 = tested on: 786-0
UACC-257 = tested on: UACC-257
SR = tested on: SR
HCC 2998 = tested on: HCC 2998
NCI-H226 = tested on: NCI-H226
ACHN = tested on: ACHN
MDA-N = tested on: MDA-N
MCF7 = tested on: MCF7
MDA-MB-435 = tested on: MDA-MB-435
SF-539 = tested on: SF-539
NCI-H522 = tested on: NCI-H522
HOP-62 = tested on: HOP-62
IGROV-1 = tested on: IGROV-1
T47D = tested on: T47D
SK-OV-3 = tested on: SK-OV-3
OVCAR-4 = tested on: OVCAR-4
NCI/ADR-RES = tested on: NCI/ADR-RES
CCRF-CEM = tested on: CCRF-CEM

Question: What does the source list for `CCOP(=O)(OCC)/C(=C\n1ccc(=O)[nH]c1=S)C(=O)OC`?
Answer: GI50 (HT-29): > 100 µM (inactive); GI50 (UO-31): > 100 µM (inactive); GI50 (COLO 205): > 100 µM (inactive); GI50 (Malme-3M): > 100 µM (inactive); GI50 (DU-145): > 100 µM (inactive); GI50 (K562): > 100 µM (inactive); GI50 (A549): > 100 µM (inactive); GI50 (HCT-116): > 100 µM (inactive); GI50 (HL-60): > 100 µM (inactive); GI50 (MDA-MB-231): > 100 µM (inactive); GI50 (SF-295): > 100 µM (inactive); GI50 (SK-MEL-5): > 100 µM (inactive); GI50 (RPMI-8226): > 100 µM (inactive); GI50 (U-251): > 100 µM (inactive); GI50 (Hs-578T): 66.2 µM (inactive); GI50 (SN12C): > 100 µM (inactive); GI50 (OVCAR-5): > 100 µM (inactive); GI50 (PC-3): > 100 µM (inactive); GI50 (SNB-75): > 100 µM (inactive); GI50 (A498): > 100 µM (inactive); GI50 (UACC-62): > 100 µM (inactive); GI50 (OVCAR-8): > 100 µM (inactive); GI50 (MOLT-4): > 100 µM (inactive); GI50 (HCT-15): > 100 µM; GI50 (M14): > 100 µM (inactive); GI50 (LOX IMVI): > 100 µM (inactive); GI50 (RXF 393): > 100 µM (inactive); GI50 (SW-620): > 100 µM (inactive); GI50 (SK-MEL-2): > 100 µM (inactive); GI50 (EKVX): > 100 µM (inactive); GI50 (SF-268): > 100 µM (inactive); GI50 (CAKI-1): > 100 µM (inactive); GI50 (SK-MEL-28): > 100 µM (inactive); GI50 (NCI-H460): > 100 µM (inactive); GI50 (NCI-H23): > 100 µM (inactive); GI50 (KM12): > 100 µM (inactive); GI50 (786-0): > 100 µM (inactive); GI50 (UACC-257): > 100 µM (inactive); GI50 (SR): > 100 µM (inactive); GI50 (HCC 2998): > 100 µM (inactive); GI50 (NCI-H226): > 100 µM (inactive); GI50 (ACHN): > 100 µM (inactive); GI50 (MDA-N): > 100 µM (inactive); GI50 (MCF7): > 100 µM (inactive); GI50 (MDA-MB-435): > 100 µM (inactive); GI50 (SF-539): > 100 µM (inactive); GI50 (NCI-H522): > 100 µM (inactive); GI50 (HOP-62): > 100 µM (inactive); GI50 (IGROV-1): > 100 µM (inactive); GI50 (T47D): > 100 µM (inactive); GI50 (SK-OV-3): > 100 µM (inactive); GI50 (OVCAR-4): > 100 µM (inactive); GI50 (NCI/ADR-RES): > 100 µM (inactive); GI50 (CCRF-CEM): > 100 µM (inactive)
